Results from US20240208895A1, “BRANCHED-CHAIN AMINO ACID DERIVATIVES TO TREAT DISEASE” (INTRABIO LTD., priority 2021, published 2024).

Columns and labels:
[1] = target: T1, human transporter MCT1 (Homo sapiens, UniProt P53985); test: Human MCT1-mediated transport in MDCK-II cells (Example 9); assay type: cell-based; conditions: MDCK-II cells expressing human MCT1, pH 5.5, 1 minute, normalized to Vmax of thiophene-2-glyoxylic acid
T1 construct: expressed in transfected cells; host or cells: MDCK-II
T1 sequence (P53985 1-500): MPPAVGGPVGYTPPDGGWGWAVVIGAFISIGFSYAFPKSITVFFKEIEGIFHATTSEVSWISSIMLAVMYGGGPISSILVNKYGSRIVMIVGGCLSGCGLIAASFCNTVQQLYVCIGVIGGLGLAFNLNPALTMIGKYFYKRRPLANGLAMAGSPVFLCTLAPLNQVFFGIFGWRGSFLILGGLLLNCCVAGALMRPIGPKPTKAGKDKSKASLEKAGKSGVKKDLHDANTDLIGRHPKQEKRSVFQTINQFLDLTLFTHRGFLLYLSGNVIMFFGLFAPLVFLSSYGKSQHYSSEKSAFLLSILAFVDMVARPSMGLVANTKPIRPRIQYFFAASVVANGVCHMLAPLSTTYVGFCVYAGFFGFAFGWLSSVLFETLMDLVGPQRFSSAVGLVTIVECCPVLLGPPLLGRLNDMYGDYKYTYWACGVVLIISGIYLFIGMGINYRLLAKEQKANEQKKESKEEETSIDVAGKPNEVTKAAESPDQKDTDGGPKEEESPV
Experimental: Representative Compounds of the Disclosure are tested in (i) MDCK-II cells expressing human transporter MCT1; and (ii) MDCK-II cells transfected with a control vector (GFP) as control cells for human transporter MCT1. 2-Thiophene-glyoxylic acid (TPGA) is the positive control for transport.
• 1. A stock solution is prepared with the test article (Compound of the Disclosure) in DMSO or in HBSS-Bis-Tris. • 2. Final assay solutions of probe substrate or test article contain 0.5% (v/v) DMSO (vehicle control). • 3. Test article concentrations are 10 μM, 30 μM, 100 μM, 300 μM, 1000 μM, 3000 μM, and 10000 μM.
MDCK-II cells are maintained in DMEM with low glucose and 10% FBS. Cells passages up to 40 are seeded at 60K±10K cells/well on 96-well, transwell membrane plates approximately 24 hours before transfection. Transport assays are carried out approximately 48 hours after transfection.
• 1. Test system: • a. Test system: 96-well cell culture plate with wells containing a monolayer of MDCK-II cells grown on a permeable support and a corresponding 96-well receiver tray. Cell plates are maintained at 37° C. in 5% CO2 atmosphere prior to initiation of the transport experiment. • b. Pre-incubation is conducted in HBSS, pH 7.4. Transport experiments are conducted in HBSS with Bis-Tris, pH 5.5, without phenol red. Pre-incubation and incubation are conducted at ambient temperatures. • c. Each condition is run in triplicate wells. • d. […] The result from the control cells is used to correct for substrate permeation by routes other than the transporter being investigated in the study. • 2. Prepare the 96-well plate as follows: • a. Wash the basal side of the culture plate insert with HBSS three times. After the final wash, blot the basal side of the wells and keep this side dry. • b. Wash the culture plate wells with HBSS three times. The wells of the culture plate serve as the apical compartment. • 3. Aspirate the final wash from the culture plate. The wells of the culture plate serve as the apical compartment. Add 100 μL of HBSS pH 7.4 pre-incubation buffer containing vehicle to the apical compartments. • 4. Incubate the plates with orbital shaking at approximately 60 RPM for the pre-incubation time specified in Table 1 of this protocol. • 5. Aspirate the pre-incubation buffer from the apical compartment of the plates. Add 100 μL of the experimental buffer that is prepared as follows and maintained at ambient temperatures. • a. For the probe substrate transport assay, the HBSS with Bis-Tris, pH 5.5 in each well contains the probe substrate at 500 μM (positive control for transport) and vehicle control. • b. For the test article assays, the HBSS with Bis-Tris, pH 5.5 in each well contains the test article at 10 μM, 30 μM, 100 μM, 300 μM, 1000 μM, 3000 μM, and 10000 μM. • 6. Incubate at ambient temperature with orbital shaking at approximately 60 RPM for the incubation time of 1 minute. • 7. […]
• 1. The amount of radiolabeled probe substrate will be quantified with radiometric detection on a 1450 Microbeta (Perkin-Elmer). • 2. The amount of non-radiolabeled probe substrate or test article will be quantified by LC-MS/MS. • 3. […] For uptake assays, the net transporter-mediated uptake rate (V) of the substrate by each SLC transporter will be calculated as follows:
[formula] • 5. For transport kinetics assessment, Km and Vmax will be calculated by non-linear regression using the Michaelis-Menten equation. • 6. […]

[2] = target: T2, monocarboxylate transporter (MCT1) (Homo sapiens, UniProt P53985); test: Inhibition of MCT1 uptake of known substrate 2-thiophene glyoxylate; assay type: cell-based; design: expressed in transfected cells
T2 sequence (P53985 1-500): T1 sequence (P53985 1-500)
Experimental: FIG. 4(c) is a line graph showing concentration-inhibition curves for the inhibition of uptake of the known substrate 2-thiophene glyoxylate (500 μM) for MCT1. DMSO (0.5%) was the solvent control (SC) and the known inhibitor phloretin (500 μM) was the positive control (PC).
FIG. 4(d) is a line graph showing concentration-inhibition curves for the inhibition of uptake of the known substrate 2-thiophene glyoxylate (500 μM) for MCT1. DMSO (0.5%) was the solvent control (SC) and the known inhibitor phloretin (500 μM) was the positive control (PC).
The known probe substrates used as positive controls are 3 μM chlorothiazide for OAT1, 2 μM estrone-3-sulfate for OAT3, 10 μM gabapentin for LAT1, 50 μM Gly-Sar for PepT1, 500 μM thiophene-2-glyoxylic acid for MCT1.
The IC50 value for the test item is determined by fitting the Hill equation in the following form:
where A % is the percent activity remaining (the mean cellular uptake observed in the solvent control sample set to 100% and the mean cellular uptake observed in the presence of the positive control inhibitor set to 0%), Top and Bottom are the upper and lower plateau of A %. [I] is the inhibitor concentration and IC50 is the inhibitor concentration where the remaining activity is at the midpoint between the Top and Bottom.

uptake mediated by MCT1 [1]: transported
Ki ([2]; assuming competitive inhibition, read-out: affinity (Ki) for MCT1, Cheng-Prusoff equation): 4.3 mM
IC50 ([2]; probe substrate 2-thiophene glyoxylate 500 μM): 15 mM
Compound: CC(=O)N[C@@H](CC(C)C)C(=O)O [N-acetyl-L-leucine]
